Measured values published in patent US20250019379A1, “NEW CRYSTAL FORM OF COMPOUND, AND PREPARATION METHOD THEREFOR AND USE THEREOF” (E-nitiate Biopharmaceuticals (Hangzhou) Co., Ltd, priority 2021, published 2025).
“And” between values parts separate entries of the source, which are not always exact repeats. Equal values may be shown once. Marks after values point to notes of the source that are not given here.

System: atopic dermatitis animal model
Assay: Atopic dermatitis animal model (dinitrochlorobenzene induced)
Type: in vivo, BALB/C mice
Conditions: for Inhibition rate of auricular thickening / Inhibition rate of skin thickening: 10th day of treatment
Text: BALB/C mice, 55 pieces, female, were 6 weeks old at the time of purchase and 8 weeks old at the time of experiment, weighing 18 g-20 g. The animals were from Shanghai Lingchang Biotechnology Co, Ltd (SCXK (Shanghai) 2018-0003), experimental animal production certificate number 20180003012342: experimental animal use license number; SYXK(Shanghai)2020-0001 (Via Biotechnology (Shanghai) Ltd.).
Modeling and administration method; Use depilatory cream to remove the hair of an area of about 5 cm×2 cm from the top of the head to the back of each animal. The application time of the depilatory cream should be controlled within 2 minutes. Wash the depilated area with warm water and wash off the depilatory agent, immediately use a hair dryer to dry the animal's hair, and place the animal on a 37° C. constant-temperature electric blanket for 1 h-2 h. After the animal moves freely, place it in a breeding cage and recover for 1 day (if the animal's skin is red, swollen and damaged after hair removal, it will its elimination). On the second day, 42 animals with normal skin were selected and randomly divided into groups according to body weight, with 6 animals in each group, totaling 7 groups. Except for the G1 normal control group, each animal in the other groups was evenly smeared with 200 μL of 0.5 wt % dinitrochlorobenzene solution (the solvent was acetone and olive oil with a mass ratio of 3:1) on the back and auricle for three consecutive days every day. Induction (the first stage of induction), the second stage of induction started after 14 days, and was induced with 1 wt % dinitrochlorobenzene solution (the solvent was acetone and olive oil with a mass ratio of 3:1) every three days until the end of the experiment, start treatment and administration at the same time, and group administration is shown in Table 6.
Skin thickness (double layer): Use a vernier caliper to measure the double layer thickness of the back skin on the 1 day before modeling, and on the 14th, 17th, 20th, 23rd, 26th, and 28th days after modeling.
Auricle thickness: Use a vernier caliper to measure the thickness of the right auricle 1 day before modeling, and on days 14, 17, 20, 23, 26, and 28 after modeling.
AD-SI score: The condition score refers to the clinical SI scoring standard, and scores three indicators: skin color/erythema, scaly erythema, scaly/peeling/lichenification, thickening, and thickening/edema degree. The total score is 12 points. Scoring standard as follows:
Erythema/skin color: 0 points, none; 1 points, slight: light red; 2 points, moderate: red; 3 points, significant: dark red; 4 points, very obvious: extremely deep red.
Scaling/peeling/lichenification: 0 points, none; 1 point, slight: there are scales/peeling/lichenification on part of the epidermis, mainly subtle; 2 points, moderate: most of the skin surface is completely or incompletely covered with Scaling/peeling/lichenification, flaky; 3 points, significant: almost all skin is covered with scales/peeling/lichenification, and the scales/peeling/lichenification are thick and layered; 4 points, very obvious: all skin is covered with Scaling/peeling/lichenification, very thick and layered.
Thickening/edema: 0 points, none: flush with normal skin; 1 points, slight: slightly higher than the normal skin surface: 2 points, moderate: moderately raised, with round or sloped plaque edges: 3 points, obvious Score: The plaque is hypertrophic and the bulge is obvious; 4 points, very significant: it is highly thickened and the bulge is very obvious. Skin/auricle hyperplasia inhibition rate (%)=1−[(skin/auricle thickness of the treatment group−skin/auricle thickness of the blank control group)/skin/auricle thickness of the negative control group−skin/auricle of the blank control group thickness)]%.
All data are expressed as Mean±SD or Mean±SEM. Use the statistical analysis software SPSS23.0 to conduct normal distribution and homogeneity of variance tests on the data. […]

[1] = 3 mg/kg oral twice a day, Day 0
[2] = 3 mg/kg oral twice a day, Day 1
[3] = 3 mg/kg oral twice a day, Day 4
[4] = 3 mg/kg oral twice a day, Day 7
[5] = 3 mg/kg oral twice a day, Day 10
[6] = 10 mg/kg oral twice a day, listed as crystalline form A
[7] = 10 mg/kg oral twice a day, Day 0
[8] = 10 mg/kg oral twice a day, Day 1
[9] = 10 mg/kg oral twice a day, Day 4
[10] = 10 mg/kg oral twice a day, Day 7
[11] = 10 mg/kg oral twice a day, Day 10
[12] = 10 mg/kg oral twice a day, Day 10, listed as crystalline form A
[13] = 30 mg/kg oral twice a day, listed as crystalline form A
[14] = 30 mg/kg oral twice a day, Day 0
[15] = 30 mg/kg oral twice a day, Day 1
[16] = 30 mg/kg oral twice a day, Day 4
[17] = 30 mg/kg oral twice a day, Day 7
[18] = 30 mg/kg oral twice a day, Day 10
[19] = 30 mg/kg oral twice a day, Day 10, listed as crystalline form A

How did the “Inhibition rate of auricular thickening” value (3 mg/kg oral twice a day) turn out when `C[C@@H](O)c1nc2cnc3[nH]ccc3c2n1N1CCC(CC#N)CC1` [Crystalline form A, (R)-2-(1-(2-(1-hydroxyethyl)imidazo[4,5-d]pyrrolo[2,3-b]pyridine-1(6H)-yl)piperidin-4-yl)acetonitrile] was run?
Its value is 37.93%.

And the “Inhibition rate of skin thickening” value (3 mg/kg oral twice a day)?
The value was 14.43%.

And the AD-SI score [1]?
The AD-SI score was 0.00 points.

And the Average auricle thickness [1]?
The Average auricle thickness was 0.20 ± 0.00 mm.

And the “Average skin thickness (double layer)” value [1]?
The value was 0.63 ± 0.01 mm.

And the AD-SI score [2]?
The AD-SI score was 0.00 points.

And the Average auricle thickness [2]?
The Average auricle thickness was 0.22 ± 0.01 mm.

And the “Average skin thickness (double layer)” value [2]?
Its value is 0.98 ± 0.01 mm.

And the AD-SI score [3]?
The AD-SI score was 1.00 ± 0.00 points.

What about the Average auricle thickness [3] of the same molecule?
The Average auricle thickness was 0.30 ± 0.01 mm.

What about the “Average skin thickness (double layer)” value [3] of the same molecule?
The value was 1.08 ± 0.01 mm.

And the AD-SI score [4]?
Its AD-SI score is 6.50 ± 1.05 points.

What about the Average auricle thickness [4] of the same molecule?
The Average auricle thickness was 0.39 ± 0.03 mm.

What about the “Average skin thickness (double layer)” value [4] of the same molecule?
Its value is 1.85 ± 0.12 mm.

What about the AD-SI score [5] of the same molecule?
Its AD-SI score is 5.83 ± 0.75 points.

And the Average auricle thickness [5]?
Its Average auricle thickness is 0.57 ± 0.04 mm and 0.57 mm.

What about the “Average skin thickness (double layer)” value [5] of the same molecule?
The value was 2.35 ± 0.15 mm and 2.35 mm.

What about the “Inhibition rate of auricular thickening” value (10 mg/kg oral twice a day) of the same molecule?
The value was 43.10%.

And the “Inhibition rate of skin thickening” value (10 mg/kg oral twice a day)?
Its value is 20.40%.

What about the “Inhibition rate of auricular thickening” value [6] of the same molecule?
Its value is 43.1%.

What about the “Inhibition rate of skin thickening” value [6] of the same molecule?
Its value is 20.4%.

What about the AD-SI score [7] of the same molecule?
The AD-SI score was 0.00 points.

What about the Average auricle thickness [7] of the same molecule?
Its Average auricle thickness is 0.20 ± 0.01 mm.

And the “Average skin thickness (double layer)” value [7]?
Its value is 0.60 ± 0.02 mm.

And the AD-SI score [8]?
The AD-SI score was 0.00 points.

What about the Average auricle thickness [8] of the same molecule?
The Average auricle thickness was 0.23 ± 0.01 mm.

And the “Average skin thickness (double layer)” value [8]?
The value was 0.94 ± 0.02 mm.

What about the AD-SI score [9] of the same molecule?
The AD-SI score was 0.50 ± 0.55 points.

And the Average auricle thickness [9]?
The Average auricle thickness was 0.32 ± 0.01**^ mm.

And the “Average skin thickness (double layer)” value [9]?
Its value is 1.14 ± 0.04 mm.

And the AD-SI score [10]?
The AD-SI score was 5.83 ± 1.17 points.

What about the Average auricle thickness [10] of the same molecule?
Its Average auricle thickness is 0.43 ± 0.03 mm.

What about the “Average skin thickness (double layer)” value [10] of the same molecule?
Its value is 1.49 ± 0.09 mm.

And the AD-SI score [11]?
The AD-SI score was 4.67 ± 0.52 points.

What about the Average auricle thickness [11] of the same molecule?
Its Average auricle thickness is 0.54 ± 0.07 mm and 0.54 mm.

What about the “Average skin thickness (double layer)” value [11] of the same molecule?
Its value is 2.23 ± 0.17 mm and 2.23 mm.

And the AD-SI score [12]?
The AD-SI score was 4.67 points.

What about the Average auricle thickness [12] of the same molecule?
The Average auricle thickness was 0.54 mm.

And the “Average skin thickness (double layer)” value [12]?
The value was 2.23 mm.

And the “Inhibition rate of auricular thickening” value (30 mg/kg oral twice a day)?
The value was 50.00%.

And the “Inhibition rate of skin thickening” value (30 mg/kg oral twice a day)?
Its value is 53.73%.

And the “Inhibition rate of auricular thickening” value [13]?
Its value is 50%.

And the “Inhibition rate of skin thickening” value [13]?
The value was 53.73%.

And the AD-SI score [14]?
The AD-SI score was 0.00 points.

What about the Average auricle thickness [14] of the same molecule?
The Average auricle thickness was 0.21 ± 0.01 mm.

What about the “Average skin thickness (double layer)” value [14] of the same molecule?
Its value is 0.62 ± 0.02 mm.

And the AD-SI score [15]?
Its AD-SI score is 0.00 points.

And the Average auricle thickness [15]?
The Average auricle thickness was 0.22 ± 0.01 mm.

What about the “Average skin thickness (double layer)” value [15] of the same molecule?
Its value is 0.79 ± 0.05 mm.

What about the AD-SI score [16] of the same molecule?
Its AD-SI score is 0.50 ± 0.55 points.

And the Average auricle thickness [16]?
The Average auricle thickness was 0.29 ± 0.02 mm.

What about the “Average skin thickness (double layer)” value [16] of the same molecule?
Its value is 1.05 ± 0.03 mm.

What about the AD-SI score [17] of the same molecule?
The AD-SI score was 3.00 ± 2.19 points.

And the Average auricle thickness [17]?
Its Average auricle thickness is 0.32 ± 0.01 mm.

What about the “Average skin thickness (double layer)” value [17] of the same molecule?
Its value is 1.01 ± 0.08 mm.

And the AD-SI score [18]?
Its AD-SI score is 3.50 ± 1.39 points.

What about the Average auricle thickness [18] of the same molecule?
Its Average auricle thickness is 0.50 ± 0.03 mm and 0.50 mm.

And the “Average skin thickness (double layer)” value [18]?
The value was 1.56 ± 0.21 mm and 1.56 mm.

What about the AD-SI score [19] of the same molecule?
The AD-SI score was 3.5 points.

And the Average auricle thickness [19]?
Its Average auricle thickness is 0.5 mm.

What about the “Average skin thickness (double layer)” value [19] of the same molecule?
The value was 1.56 mm.
